Assay results from US11053251B2, “GPR35 modulators” (Prometheus Biosciences, Inc., priority 2019, dated 2021).

What follows are compounds tested against Human GPR35 (Homo sapiens, UniProt Q9HC97, S294R) (assay: Alternative Beta-Arrestin Assay (JumpIn 294R Tango U2OS cells, LiveBLAzer-FRET B/G)). Conditions: Human GPR35 expressing JumpIn 294R Tango U2OS cells, 5 hours treatment.
Assay type: cell-based
Procedure: Human GPR35 expressing JumpIn (Thermo Fisher) 294R Tango U2OS cells were plated in 384-well format in clear bottom plates at a cell density of 10,000 cells/well and allowed to grow overnight. The next day, cells were treated with serially diluted test compounds for 5 hours. LiveBLAzer-FRET B/G (CCF4-AM) detection reagents were then added and cells were allowed to incubate for 2 hours before reading plates on a BioTek Cytation 5 plate reader. Zaprinast was used as a positive control for dose-response curves. In order to determine EC50 values, data w ere fit to a four-parameter dose-response curves.

Sequence of Human GPR35 (Q9HC97 whole entry S294R): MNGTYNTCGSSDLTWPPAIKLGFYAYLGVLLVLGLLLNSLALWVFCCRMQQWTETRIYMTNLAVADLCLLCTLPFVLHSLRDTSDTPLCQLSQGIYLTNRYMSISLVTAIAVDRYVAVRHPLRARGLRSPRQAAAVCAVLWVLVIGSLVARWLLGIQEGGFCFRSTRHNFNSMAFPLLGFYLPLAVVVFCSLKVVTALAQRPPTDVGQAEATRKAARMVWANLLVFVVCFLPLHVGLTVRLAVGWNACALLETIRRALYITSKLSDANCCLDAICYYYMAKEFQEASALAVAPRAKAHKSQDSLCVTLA

Q: How did the EC50 turn out when `CN(C)CCCOc1cc(-c2ccc(C(=O)O)cc2)ccc1-c1nc2[nH]nnc2c(=O)[nH]1` [Compound 229, 3′-(3-(Dimethylamino)propoxy)-4′-(7-oxo-6,7-dihydro-3H-[1,2,3]triazolo[4,5-d]pyrimidin-5-yl)-[1,1′-biphenyl]-4-carboxylic acid] was run?
A: 10 to 50 µM

Q: `CCOc1cc(-c2nc3[nH]nnc3c(=O)[nH]2)ccc1-c1ccc(C(=O)O)cc1` [Compound 195, 2′-Ethoxy-4′-(7-oxo-6,7-dihydro-3H-[1,2,3]triazolo[4,5-d]pyrimidin-5-yl)-[1,1′-biphenyl]-4-carboxylic acid] was tested. Which EC50 did it give?
A: ≤ 10 µM

Q: `CCOc1cc(-c2cc(O)cc(O[C@@H](C)C(=O)O)c2)ccc1-c1nc2[nH]nnc2c(=O)[nH]1` (single isomer, unassigned) [Compound 256] was tested. Which EC50 did it give?
A: ≤ 10 µM

Q: `CCOc1cc(-c2ccc(OC)c(/C=C(\C)C(=O)O)c2)ccc1-c1nc2[nH]nnc2c(=O)[nH]1` [Compound 315, (E)-3-(3′-ethoxy-4-methoxy-4′-(7-oxo-6,7-dihydro-3H-[1,2,3]triazolo[4,5-d]pyrimidin-5-yl)-[1,1′-biphenyl]-3-yl)-2-methylacrylic acid] was tested. Which EC50 did it give?
A: ≤ 10 µM

Q: With `CCOc1cc(-c2cc(F)c(F)c(O[C@@H](C)C(=O)O)c2)ccc1-c1nc2[nH]nnc2c(=O)[nH]1` (single isomer, unassigned) [Compound 261] as the compound, how does the EC50 read?
A: ≤ 10 µM

Q: `CCOc1cc(-c2ccc(OC(C)C)c(/C=C(\C)C(=O)O)c2)ccc1-c1nc2[nH]nnc2c(=O)[nH]1` [Compound 301, (E)-3-(3′-ethoxy-4-isopropoxy-4′-(7-oxo-6,7-dihydro-3H-[1,2,3]triazolo[4,5-d]pyrimidin-5-yl)-[1,1′-biphenyl]-3-yl)-2-methylacrylic acid] was tested. Which EC50 did it give?
A: ≤ 10 µM

Q: `CCOc1cc(-c2cccc(NCC(=O)O)c2)ccc1-c1nc2[nH]nnc2c(=O)[nH]1` [Compound 214, (3′-Ethoxy-4′-(7-oxo-6,7-dihydro-3H-[1,2,3]triazolo[4,5-d]pyrimidin-5-yl)-[1,1′-biphenyl]-3-yl)glycine] was tested. Which EC50 did it give?
A: ≤ 10 µM

Q: For `CCOc1cc(-c2cccc(CC3(C(=O)O)CC3)c2)ccc1-c1nc2[nH]nnc2c(=O)[nH]1` [Compound 244, 1-((3′-ethoxy-4′-(7-oxo-6,7-dihydro-3H-[1,2,3]triazolo[4,5-d]pyrimidin-5-yl)-[1,1′-biphenyl]-3-yl)methyl)cyclopropane-1-carboxylic acid], which EC50 is on record?
A: ≤ 10 µM

Q: Which EC50 does the source give for `CC(C)OC(=O)COc1cccc(-c2ccc(-c3nc4[nH]nnc4c(=O)[nH]3)c(OC3CCCC3)c2)c1` [Compound 271, isopropyl 2-((3′-(cyclopentyloxy)-4′-(7-oxo-6,7-dihydro-3H-[1,2,3]triazolo[4,5-d]pyrimidin-5-yl)-[1,1′-biphenyl]-3-yl)oxy)acetate] here?
A: ≤ 10 µM

Q: How did the EC50 turn out when `CCOc1cc(-c2cc(C)cc(O[C@@H](C)C(=O)O)c2)ccc1-c1nc2[nH]nnc2c(=O)[nH]1` [Compound 267, (S)-2-((3′-ethoxy-5-methyl-4′-(7-oxo-6,7-dihydro-3H-[1,2,3]triazolo[4,5-d]pyrimidin-5-yl)-[1,1′-biphenyl]-3-yl)oxy)propanoic acid] was run?
A: ≤ 10 µM

Q: With `CCNc1cc(-c2nc3[nH]nnc3c(=O)[nH]2)ccc1-c1ccc(C(=O)O)cc1` [Compound 292, 2′-(ethylamino)-4′-(7-oxo-6,7-dihydro-3H-[1,2,3]triazolo[4,5-d]pyrimidin-5-yl)-[1,1′-biphenyl]-4-carboxylic acid] as the compound, how does the EC50 read?
A: ≤ 10 µM

Q: For `CCOc1cc(-c2ccc(O)c(OC(C)C(=O)O)c2)ccc1-c1nc2[nH]nnc2c(=O)[nH]1` (stereo not drawn) [Compound 280, 2-((3′-ethoxy-4-hydroxy-4′-(7-oxo-6,7-dihydro-3H-[1,2,3]triazolo[4,5-d]pyrimidin-5-yl)-[1,1′-biphenyl]-3-yl)oxy)propanoic acid], which EC50 is on record?
A: ≤ 10 µM

Q: How did the EC50 turn out when `O=C(O)c1ccc(-c2ccc(-c3nc4[nH]nnc4c(=O)[nH]3)c(OC3CCCC3)c2)c(O)c1` [Compound 202, 3′-(Cyclopentyloxy)-2-hydroxy-4′-(7-oxo-6,7-dihydro-3H-[1,2,3]triazolo[4,5-d]pyrimidin-5-yl)-[1,1′-biphenyl]-4-carboxylic acid] was run?
A: ≤ 10 µM

Q: How did the EC50 turn out when `CCOc1cc(-c2ccc(OCCN(C)C)c(CCC(=O)O)c2)ccc1-c1nc2[nH]nnc2c(=O)[nH]1` [Compound 320, 3-(4-(2-(dimethylamino)ethoxy)-3′-ethoxy-4′-(7-oxo-6,7-dihydro-3H-[1,2,3]triazolo[4,5-d]pyrimidin-5-yl)-[1,1′-biphenyl]-3-yl)propanoic acid] was run?
A: ≤ 10 µM

Q: `CCOc1cc(-c2ccc(OCC(=O)O)cc2)ccc1-c1nc2[nH]nnc2c(=O)[nH]1` [Compound 211, 2-((3′-Ethoxy-4′-(7-oxo-6,7-dihydro-3H-[1,2,3]triazolo[4,5-d]pyrimidin-5-yl)-[1,1′-biphenyl]-4-yl)oxy)acetic acid] was tested. Which EC50 did it give?
A: ≤ 10 µM

Q: With `O=C(O)COc1cccc(-c2ccc(-c3nc4[nH]nnc4c(=O)[nH]3)c(OC3CCCC3)c2)c1` [Compound 216, 2-((3′-(Cyclopentyloxy)-4′-(7-oxo-6,7-dihydro-3H-[1,2,3]triazolo[4,5-d]pyrimidin-5-yl)-[1,1′-biphenyl]-3-yl)oxy)acetic acid] as the compound, how does the EC50 read?
A: ≤ 10 µM

Q: How did the EC50 turn out when `CCOc1cc(-c2cccc(CC(C)C(=O)O)c2)ccc1-c1nc2[nH]nnc2c(=O)[nH]1` (single isomer, unassigned) [Compound 312, 3-(3′-ethoxy-4′-(7-oxo-6,7-dihydro-3H-[1,2,3]triazolo[4,5-d]pyrimidin-5-yl)-[1,1′-biphenyl]-3-yl)-2-methylpropanoic acid] was run?
A: ≤ 10 µM

Q: `CCOc1cc(-c2ccc(OCCN3CCCC3)c(CC(C)C(=O)O)c2)ccc1-c1nc2[nH]nnc2c(=O)[nH]1` (stereo not drawn) [Compound 300, 3-(3′-ethoxy-4′-(7-oxo-6,7-dihydro-3H-[1,2,3]triazolo[4,5-d]pyrimidin-5-yl)-4-(2-(pyrrolidin-1-yl)ethoxy)-[1,1′-biphenyl]-3-yl)-2-methylpropanoic acid] was tested. Which EC50 did it give?
A: ≤ 10 µM

Q: For `CCOc1cc(-c2cc(O)cc(OC(C)C(=O)O)c2)ccc1-c1nc2[nH]nnc2c(=O)[nH]1` (stereo not drawn) [Compound 276, 2-((3′-ethoxy-5-hydroxy-4′-(7-oxo-6,7-dihydro-3H-[1,2,3]triazolo[4,5-d]pyrimidin-5-yl)-[1,1′-biphenyl]-3-yl)oxy)propanoic acid], which EC50 is on record?
A: ≤ 10 µM

Q: Which EC50 does the source give for `CCOC(=O)COc1cccc(-c2ccc(-c3nc4[nH]nnc4c(=O)[nH]3)c(OCC)c2)c1` [Compound 120, Ethyl 2-((3′-ethoxy-4′-(7-oxo-6,7-dihydro-3H-[1,2,3]triazolo[4,5-d]pyrimidin-5-yl)-[1,1′-biphenyl]-3-yl)oxy)acetate] here?
A: ≤ 10 µM

Q: With `CCOc1cc(-c2cccc(C[C@H](NC(C)=O)C(=O)O)c2)ccc1-c1nc2[nH]nnc2c(=O)[nH]1` [Compound 293, (S)-2-acetamido-3-(3′-ethoxy-4′-(7-oxo-6,7-dihydro-3H-[1,2,3]triazolo[4,5-d]pyrimidin-5-yl)-[1,1′-biphenyl]-3-yl)propanoic acid] as the compound, how does the EC50 read?
A: ≤ 10 µM

Q: `CCOc1cc(-c2cccc(CC3(C(=O)O)CCC3)c2)ccc1-c1nc2[nH]nnc2c(=O)[nH]1` [Compound 246, 1-((3′-ethoxy-4′-(7-oxo-6,7-dihydro-3H-[1,2,3]triazolo[4,5-d]pyrimidin-5-yl)-[1,1′-biphenyl]-3-yl)methyl)cyclobutane-1-carboxylic acid] was tested. Which EC50 did it give?
A: ≤ 10 µM

Q: With `CCOC(=O)COc1cccc(-c2ccc(-c3nc4[nH]nnc4c(=O)[nH]3)c(OC3CCCC3)c2)c1` [Compound 270, ethyl 2-((3′-(cyclopentyloxy)-4′-(7-oxo-6,7-dihydro-3H-[1,2,3]triazolo[4,5-d]pyrimidin-5-yl)-[1,1′-biphenyl]-3-yl)oxy)acetate] as the compound, how does the EC50 read?
A: ≤ 10 µM

Q: For `CCOc1cc(-c2ccc(C(=O)O)c(N)c2)ccc1-c1nc2[nH]nnc2c(=O)[nH]1` [Compound 204, 3-Amino-3′-ethoxy-4′-(7-oxo-6,7-dihydro-3H-[1,2,3]triazolo[4,5-d]pyrimidin-5-yl)-[1,1′-biphenyl]-4-carboxylic acid], which EC50 is on record?
A: ≤ 10 µM

Q: `CCOc1cc(-c2ccc(C)c(CCC(=O)O)c2)ccc1-c1nc2[nH]nnc2c(=O)[nH]1` [Compound 321, 3-(3′-ethoxy-4-methyl-4′-(7-oxo-6,7-dihydro-3H-[1,2,3]triazolo[4,5-d]pyrimidin-5-yl)-[1,1′-biphenyl]-3-yl)propanoic acid] was tested. Which EC50 did it give?
A: ≤ 10 µM

Q: For `CCOc1cc(-c2cccc(C[C@H](O)C(=O)O)c2)ccc1-c1nc2[nH]nnc2c(=O)[nH]1` [Compound 282, (S)-3-(3′-ethoxy-4′-(7-oxo-6,7-dihydro-3H-[1,2,3]triazolo[4,5-d]pyrimidin-5-yl)-[1,1′-biphenyl]-3-yl)-2-hydroxypropanoic acid], which EC50 is on record?
A: ≤ 10 µM

Q: `CCOc1cc(-c2cccc(OC(C(=O)O)c3ccccc3)c2)ccc1-c1nc2[nH]nnc2c(=O)[nH]1` (stereo not drawn) [Compound 249, 2-((3′-ethoxy-4′-(7-oxo-6,7-dihydro-3H-[1,2,3]triazolo[4,5-d]pyrimidin-5-yl)-[1,1′-biphenyl]-3-yl)oxy)-2-phenylacetic acid] was tested. Which EC50 did it give?
A: ≤ 10 µM

Q: How did the EC50 turn out when `CCOc1cc(-c2nc3[nH]nnc3c(=O)[nH]2)ccc1-c1cccc(OCC(=O)O)c1` [Compound 217, 2-((2′-Ethoxy-4′-(7-oxo-6,7-dihydro-3H-[1,2,3]triazolo[4,5-d]pyrimidin-5-yl)-[1,1′-biphenyl]-3-yl)oxy)acetic acid] was run?
A: ≤ 10 µM

Q: Which EC50 does the source give for `CCOc1cc(-c2ccc(O)c(NCC(=O)O)c2)ccc1-c1nc2[nH]nnc2c(=O)[nH]1` [Compound 222, (3′-Ethoxy-4-hydroxy-4′-(7-oxo-6,7-dihydro-3H-[1,2,3]triazolo[4,5-d]pyrimidin-5-yl)-[1,1′-biphenyl]-3-yl)glycine] here?
A: ≤ 10 µM

Q: How did the EC50 turn out when `CN(C)c1cc(-c2nc3[nH]nnc3c(=O)[nH]2)ccc1-c1ccc(C(=O)O)cc1` [Compound 288, 2′-(dimethylamino)-4′-(7-oxo-6,7-dihydro-3H-[1,2,3]triazolo[4,5-d]pyrimidin-5-yl)-[1,1′-biphenyl]-4-carboxylic acid] was run?
A: ≤ 10 µM
